The assay concerns SJL mouse EAE model of multiple sclerosis. As to the kind of experiment: Experimental Allergic Encephalomyelitis (EAE) in SJL mice, clinical neurological scoring 0-5. Type of assay: in vivo. As to conditions: 10 mg/kg orally once a day. How it is done:
Experimental Allergic Encephalomyelitis (EAE) is a central nervous system, autoimmune, demyleinating disease, that mimics many aspects of multiple sclerosis. Acute models of murine EAE are often utilised to evaluate the efficacy of therapeutics.
Acclimatised SJL mice were sensitised by a subcutaneous injection proteolipid protein (PLP) in Freund's complete adjuvant (CFA) acting as an encephalitogenic inoculum. Innoculum was administered subcutaneously at a concentration of 125 μg PLP/300 μg CFA in a volume of 200 μl. 48 hours later, an intraperitoneal injection of pertussis toxin (PTX) was administered at a dose of 20 μg/kg, to increase blood-brain barrier permeability.
(+)-Erythro-2-tert-butylamino-1-(3-chlorophenyl)-propan-1-ol hydrochloride and copoxane were administered from the first day of the experiment and once a day until the end. (+)-Erythro-2-tert-butylamino-1-(3-chlorophenyl)-propan-1-ol hydrochloride was administered orally at a dose of 10 mg/kg. Copaxone was administered intraperitoneally at a dose of 25 mg/kg. Throughout the experiment, careful clinical examinations and body weights were taken to observe the well being of the animal. In addition, clinical scoring of the EAE symptoms was taken to the classical 0-5 scale, as follows: • 0 Normal reactions • 1 Tail weakness • 2 Hind leg weakness and paresis • 3 Hind leg paralysis • 4 Quadriplegia • 5 Moribund/death Results

Each structure is given as a SMILES string.

Regarding `C[C@H](NC(C)(C)C)[C@H](O)c1cccc(Cl)c1.Cl` [(+)-erythro-2-tert-butylamino-1-(3-chlorophenyl)-propan-1-ol hydrochloride], the “improvement in symptoms / disease resolution” value (compared to the vehicle) is given as “more rapid improvement in symptoms”. Besides, the maximal neurologic score result (versus vehicle, 0-5 scale) is on record as “no improvement”.
